Experiments:
[1] = test system: plasma fibrinogen in arthritis model; assay: Adjuvant arthritis test: inhibition of adjuvant-elevated plasma fibrinogen in rats; type: in vivo, Male Sprague Dawley rats; details: rat
[2] = test system: reverse passive Arthus reaction (blueing by antigen and antibody); assay: Reverse Passive Arthus Reaction (RPA); type: in vivo, Male SD rats; details: rat
Method: Male SD rats weighing between 200 and 300 g were used. Test compounds were dissolved in dimethyl sulfoxide and 1 ml/kg of this stock solution (100 mg/ml), on serial dilutions were injected intraperitoneally one hour before administration of the antigen or given orally. The animals were anesthetized inhalationally with isoflurane and then injected through the penile vein with 1 ml of a solution of 2.5 mg of Evan's blue dye and 5.0 mg of human serum albumin in 1 ml of saline. This treatment was followed immediately by intracutaneous injections of 0.075 ml of anti-human albumin diluated to contain 4.38 mg/ml of antibody at 2 sites opposite the midline back. Anesthesia was terminated and after three hours, the animals were sacrificed. The skin was removed and the blue stained areas cut out. The skin patches were soaked overnight in stoppered tubes containing 2 ml of 1N potassium hydroxide at 5° C. Then 9 ml of a mixture of five parts of a 1.2N phosphoric acid and thirteen parts of acetone were added to the tubes. The tube contents were agitated and centrifuged, and the absorbance measured at 620 nm. The data were calculated as inhibition of blueing by test compound compared to control animals receiving only antigen and antibody.

[3] = test system: ear edema caused by oxazolone; assay: Inhibition of Ear Edema Caused by Oxazolone; type: in vivo, CF-1 mice; details: mouse, 24 hours
Method: CF-1 mice, 25-30 g body weight, six animals per group were used. The mice were sensitized to the irritant two weeks prior to the test by dribbling 100 μL of a 3% solution of oxazolone in acetone onto the scrotum of the animal. Test compounds were administered orally at doses of 100 mg/kg and 300 mg/kg for 1 hour prior to oxazolone, intraperitoneally as follows: The test compound was dissolved in dimethyl sulfoxide and doses of 10 mg/kg, 30 mg/kg, and 100 mg/kg were injected 15 mintures prior to irritant. The irritant, 3% oxazolone in acetone, was added to the surface of the ear, 5 μL added to the upper surface and 5 μL added to the lower surface. After twenty four hours the thickness of the ear was measured to 0.01 mm by a micrometer with loose drag, positioned at the lateral-most edge of the mid-point of the pinna. Data were calculated as the inhibition of increased ear thickness compared to control animals' receiving only the irritant. In general, % inhibition of greater than 20% is statistically significant (p<0.05 or less, Student's t-test for unpaired data).

Compound | AA (i.p.) % inhibition at 100 mg/kg (inhibited plasma fibrinogen in arthritis model) ([1]; 100 mg/kg) | AA (p.o.) % inhibition at 100 mg/kg (inhibited plasma fibrinogen in arthritis model) ([1]; 100 mg/kg) | RPA (p.o.) 100 mg/kg inhibition [2] | other results
O=C(CCC1c2ccccc2-c2ccccc21)Nc1ccccc1C(=O)O [Example 14, N-[3-(9-Fluorenyl)propionyl]anthranilic acid] | – | – | – | Inhibition of plasma fibrinogen levels ([1]; 10 mg/kg): 22%; Inhibition of plasma fibrinogen levels ([1]; 30 mg/kg): 19%; Inhibition of plasma fibrinogen levels ([1]; 100 mg/kg): 51%
O=C(Nc1ccc(C(=O)O)cc1)SCCC1c2ccccc2-c2ccccc21 [Example 26, N-[2-(9H-Fluoren-9-yl)ethylthioxycarbonyl]-4-aminobenzoic acid] | 70% | 56% | – | –
Cc1ccc2c(c1)C(CCOC(=O)Nc1ccc(C(=O)O)cc1)c1cc(C)ccc1-2 [Example 8, N-[9H-(2,7-Dimethylfluorenyl-9-ethoxycarbonyl)]amino-4-benzoic acid] | 69% | 48% | 0% | –
O=C(CCCC1c2ccccc2-c2ccccc21)Nc1ccc(C(=O)O)cc1 [Example 25, 4-[9H-(Fluoren-9-yl)]butyric acid-4-carboxyanilide] | – | 15% | 0% | –
O=C(Nc1ccc(C(=O)O)cc1)OCCCC1c2ccccc2-c2ccccc21 [Example 23, 4-[3-(9H-Fluoren-9-yl)propoxycarbonyl]-aminobenzoic acid] | – | – | 1% | –
O=C(Nc1ccc(C(=O)O)cc1)SCCC1c2cc(Cl)ccc2-c2ccc(Cl)cc21 [Example 27] | 54% | 52% | – | –
O=C(Nc1ccc(C(=O)O)cc1)OCCC1c2cc(Cl)ccc2-c2ccc(Cl)cc21 [Example 9] | 78% | 38% | 54% | –
O=C(Nc1ccc(C(=O)O)cc1)OCCC1c2ccccc2-c2ccccc21 [Example 7, N-[9H-(Fluorenyl-9-ethoxycarbonyl)]amino-4-benzoic acid] | 63% | 39% | 25% | Inhibition of increased ear thickness ([3]; i.p., 10 mg/kg): 46%; Inhibition of increased ear thickness ([3]; i.p., 30 mg/kg): 82%; Inhibition of increased ear thickness ([3]; i.p., 100 mg/kg): 79%; Inhibition of increased ear thickness ([3]; orally, dose of this value not stated (100 and 300 mg/kg in method)): 50%; Plasma fibrinogen level, drug by itself ([1]; 100 mg/kg p.o., n=5, without adjuvant, basal 2.44±0.08 mg/ml): 4.8 ± 0.6 mg/mL; Maximum inhibition of plasma fibrinogen ([1]; given orally, maximum achieved at 3 mg/kg): 50%
O=C(Nc1ccc(C(=O)O)cc1)SCCC1c2cc(Br)ccc2-c2ccc(Br)cc21 [Example 28] | 72% | 41% | 1% | –

From patent US5519043A, “Fluorenyl derivatives” (Scios Nova Inc., priority 1993, dated 1996)
